{
  "source": "paper PMC6385087",
  "about": "“New Multitarget Hybrids Bearing Tacrine and Phenylbenzothiazole Motifs as Potential Drug Candidates for Alzheimer’s Disease” (Molecules, 2019)",
  "tested_on": "SH-SY5Y cells",
  "assay": "Neuroprotection against ferrous sulfate/L-ascorbic acid toxicity, MTT reduction",
  "type": "cell-based, human",
  "conditions": "Fe/Asc 500 μM/5 mM, 24 h after 1 h pre-treatment, compounds: 16 2.5 µM, 17 0.5 µM, 14 and 15 0.2 µM, 19 and 18 1 µM",
  "protocol": "The neuroprotective effect of TAC-PhBTA conjugates was evaluated using SH-SY5Y cells treated with Aβ1–42 peptides or ascorbate/iron. For each compound, a dose-response curve was performed to select a non-toxic concentration in order to analyze its neuroprotective effect (Figure 3).\nSH-SY5Y human neuroblastoma cell line (ATCC-CRL-2266) grown in Dulbecco’s modified Eagle’s medium (DMEM) obtained from Gibco-Invitrogen (Life Technologies Ltd., Liverpool, UK) with 10% heat inactivated fetal calf serum, containing 50 U/mL penicillin, and 50 μg/mL streptomycin, under a humidified atmosphere of 95% air-5% CO2 at 37 °C. Cells were plated at 0.12 × 10^6 cells/mL for cell viability assay. The tested compounds (16, 17, 14, 15, 19 and 18) were dissolved in DMSO at a concentration of 25 mM and aliquots were stored at −20 °C. We performed a dose-response screening (from 0.2 μM to 5 μM) in order to choose the highest non-toxic concentration. […]\nCell viability was determined by a MTT (3-(4,5-dimethylthiazol-2-yl)-2,5-diphenyltetrazolium bromide) reduction test. […] The absorbance was measured at 570 nm. Cell reduction ability was expressed as a percentage of untreated control cells.\nAll data were expressed as mean ± S.E.M. of at least three independent experiments performed in duplicates. […]",
  "data": [
    {"smiles": "COc1cc(-c2nc3ccccc3s2)ccc1OCC(=O)NCCCNc1c2c(nc3ccccc13)CCCC2", "note": "[compound 16, 2-(4-(Benzo[d]thiazol-2-yl)-2-methoxyphenoxy)-N-(3-((1,2,3,4-tetrahydroacridin-9-yl)amino)propyl)acetamide]", "values": [
      {"measurement": "Neuroprotective effect against Asc/Fe toxicity (cell viability, MTT)", "result": "statistical significant neuroprotective effect"}
    ]}
  ]
}
